Test results published in patent US10968225B2, “Compounds and compositions for the treatment of cystic fibrosis” (Fondazione Istituto Italiano Di Tecnologia, priority 2017, dated 2021).
Where a name gives a salt, the structure may show the parent alone.

These molecules were tested against T1, mutant CFTR (Homo sapiens, UniProt P13569, DEL508-508) (assay: Fluorescence (HS-YFP) assay for CFTR activity, corrector assay). Details: CFBE41o- and FRT cells with stable expression of mutant CFTR, read-out: activity (EC50).
T1 construct: expressed in transfected cells
T1 sequence (P13569 with tags, fused parts or gaps DEL508-508): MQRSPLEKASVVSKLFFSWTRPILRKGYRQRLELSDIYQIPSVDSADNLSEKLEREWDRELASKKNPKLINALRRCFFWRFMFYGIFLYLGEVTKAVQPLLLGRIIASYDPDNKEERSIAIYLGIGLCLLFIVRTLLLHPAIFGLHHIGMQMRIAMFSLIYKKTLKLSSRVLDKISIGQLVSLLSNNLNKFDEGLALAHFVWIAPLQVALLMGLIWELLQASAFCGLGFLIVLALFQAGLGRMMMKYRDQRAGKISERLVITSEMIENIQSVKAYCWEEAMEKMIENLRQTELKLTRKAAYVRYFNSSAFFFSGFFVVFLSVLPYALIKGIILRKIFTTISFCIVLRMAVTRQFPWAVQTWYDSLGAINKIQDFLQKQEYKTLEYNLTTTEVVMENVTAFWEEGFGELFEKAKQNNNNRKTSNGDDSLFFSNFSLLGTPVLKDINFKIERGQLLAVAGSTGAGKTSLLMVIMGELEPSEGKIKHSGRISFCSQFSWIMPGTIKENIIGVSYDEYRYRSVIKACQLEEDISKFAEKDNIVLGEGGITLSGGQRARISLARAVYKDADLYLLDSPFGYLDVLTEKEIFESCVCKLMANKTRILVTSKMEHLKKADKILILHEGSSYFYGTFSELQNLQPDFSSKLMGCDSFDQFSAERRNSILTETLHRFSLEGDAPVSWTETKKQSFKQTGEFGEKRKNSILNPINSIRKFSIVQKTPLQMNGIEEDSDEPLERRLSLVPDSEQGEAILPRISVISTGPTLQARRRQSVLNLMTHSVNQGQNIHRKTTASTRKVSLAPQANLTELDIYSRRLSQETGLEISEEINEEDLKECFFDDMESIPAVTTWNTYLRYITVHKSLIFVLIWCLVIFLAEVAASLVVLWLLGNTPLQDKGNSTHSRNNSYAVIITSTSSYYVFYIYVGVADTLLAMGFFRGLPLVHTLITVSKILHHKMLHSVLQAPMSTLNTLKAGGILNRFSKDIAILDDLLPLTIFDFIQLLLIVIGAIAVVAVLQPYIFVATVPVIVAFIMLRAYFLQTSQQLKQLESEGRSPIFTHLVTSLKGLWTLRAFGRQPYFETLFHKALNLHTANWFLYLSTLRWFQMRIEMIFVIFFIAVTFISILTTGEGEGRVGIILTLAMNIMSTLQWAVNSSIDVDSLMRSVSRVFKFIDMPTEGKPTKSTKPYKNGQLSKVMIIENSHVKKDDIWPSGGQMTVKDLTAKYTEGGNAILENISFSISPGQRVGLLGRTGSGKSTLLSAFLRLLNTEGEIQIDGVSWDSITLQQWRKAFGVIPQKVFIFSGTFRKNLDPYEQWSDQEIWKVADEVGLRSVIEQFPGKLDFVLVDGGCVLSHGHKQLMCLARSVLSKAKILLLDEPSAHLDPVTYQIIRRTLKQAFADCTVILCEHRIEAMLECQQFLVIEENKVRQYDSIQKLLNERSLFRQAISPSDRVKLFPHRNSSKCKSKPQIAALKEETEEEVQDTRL
Format: cell-based
`Cc1nc2cc(F)c(N(C)C(=O)c3cccc(-n4nc(C(F)(F)F)c5c4CCN(C(=O)OC(C)(C)C)C5)c3)cc2o1` [Compound 036, tert-Butyl 1-[3-[(5-fluoro-2-methyl-1,3-benzoxazol-6-yl)-methylcarbamoyl]phenyl]-3-(trifluoromethyl)-6,7-dihydro-4H-pyrazolo[4,3-c]pyridine-5-carboxylate] gave an EC50 of under 1000 nM. `Cc1nc2cc(F)c(NC(=O)c3cccc(-n4nc(C(F)(F)F)c5c4CCN(C(=O)OC(C)(C)C)C5)c3)cc2o1` [Compound 037, tert-Butyl 1-[3-[(5-fluoro-2-methyl-1,3-benzoxazol-6-yl)carbamoyl]phenyl]-3-(trifluoromethyl)-6,7-dihydro-4H-pyrazolo[4,3-c]pyridine-5-carboxylate] was tested, and the EC50 was over 2000 nM. Molecule `CN(C(=O)c1cccc(-n2nc(C(F)(F)F)c3c2CNCC3)c1)c1ccc2c(c1)OCO2` [Compound 038, N-(1,3-Benzodioxol-5-yl)-N-methyl-3-[3-(trifluoromethyl)-4,5,6,7-tetrahydropyrazolo[3,4-c]pyridin-1-yl] benzamide hydrochloride] has an EC50 of under 1000 nM. `Cc1nc2ccc(N(C)C(=O)c3cccc(-n4nc(C(F)(F)F)c5c4CCN(C(=O)OC(C)(C)C)C5)c3)cc2o1` [Compound 039, tert-Butyl 1-[3-[methyl-(2-methyl-1,3-benzoxazol-6-yl)carbamoyl]phenyl]-3-(trifluoromethyl)-6,7-dihydro-4H-pyrazolo[4,3-c]pyridine-5-carboxylate] was tested, and the EC50 was under 1000 nM. `Cc1nc2ccc(N(C)C(=O)c3cccc(-n4nc(C(F)(F)F)c5c4CCN(C)C5)c3)cc2o1` [Compound 040, N-Methyl-N-(2-methyl-1,3-benzoxazol-6-yl)-3-[5-methyl-3-(trifluoromethyl)-6,7-dihydro-4H-pyrazolo[4,3-c]pyridin-1-yl]benzamide] was tested, and the EC50 was under 1000 nM. For `CC(=O)Nc1ccc(N(C)C(=O)c2cccc(-n3nc(C(F)(F)F)c4c3CCN(C)C4)c2)cc1O` [Compound 041, N-(4-Acetamido-3-hydroxy-phenyl)-N-methyl-3-[5-methyl-3-(trifluoromethyl)-6,7-dihydro-4H-pyrazolo[4,3-c]pyridin-1-yl]benzamide], the EC50 was over 2000 nM. Work on `COC(=O)c1ccc(C(=O)N2CCc3c(c(C(F)(F)F)nn3-c3cccc(C(=O)N(C)c4ccc5c(c4)OCO5)c3)C2)cc1` [Compound 042, Methyl 4-[1-[3-[1,3-benzodioxol-5-yl(methyl)carbamoyl]phenyl]-3-(trifluoromethyl)-6,7-dihydro-4H-pyrazolo[4,3-c]pyridine-5-carbonyl]benzoate] yielded an EC50 of under 1000 nM. Molecule `CN(C(=O)c1cccc(-n2nc(C(F)(F)F)c3c2CCN(C(=O)c2ccc(C(=O)O)cc2)C3)c1)c1ccc2c(c1)OCO2` [Compound 044, 4-[1-[3-[1,3-Benzodioxol-5-yl(methyl)carbamoyl]phenyl]-3-(trifluoromethyl)-6,7-dihydro-4H-pyrazolo[4,3-c]pyridine-5-carbonyl]benzoic acid] has an EC50 of over 2000 nM. For `Cc1nc2cc(F)c(N(C)C(=O)c3cccc(-n4nc(C(F)(F)F)c5c4CCN(C)C5)c3)cc2o1` [Compound 046, N-(5-Fluoro-2-methyl-1,3-benzoxazol-6-yl)-N-methyl-3-[5-methyl-3-(trifluoromethyl)-6,7-dihydro-4H-pyrazolo[4,3-c]pyridin-1-yl]benzamide], the EC50 was under 1000 nM. In the case of `Cc1nc2cc(F)c(NC(=O)c3cccc(-n4nc(C(F)(F)F)c5c4CCN(C)C5)c3)cc2o1` [Compound 047, N-(5-Fluoro-2-methyl-1,3-benzoxazol-6-yl)-3-[5-methyl-3-(trifluoromethyl)-6,7-dihydro-4H-pyrazolo[4,3-c]pyridin-1-yl]benzamide], the EC50 is reported as over 2000 nM. In the case of `CN(C(=O)c1cccc(-n2nc(C(F)(F)F)c3c2CCOC3)c1)c1ccc2c(c1)OCO2` [Compound 054, N-(1,3-Benzodioxol-5-yl)-N-methyl-3-[3-(trifluoromethyl)-6,7-dihydro-4H-pyrano[4,3-c]pyrazol-1-yl]benzamide], the EC50 is reported as under 1000 nM.
